In patent US5677336A, “Non-steroid androgen receptor antagonist compounds and methods” (Ligand Pharmaceuticals Incorporated, priority 1993, dated 1997):
Where two headings read alike, the source gives them in different places.

Assays:
[1] = Wall et al., J. Nat. Prod. 1989; cited from earlier work
[2] = tested on: progesterone receptor (PR-TI); test: Antagonist activity on progesterone receptor, CV-1 cells cotransfected with pRShPR-B altered at Tau-1 (PR-TI); type: cell-based, human; settings: Table 2, CV-1 cells PR-TI
Excerpt: (§1) In the co-transfection assay, a cloned gene for an intracellular receptor (e.g., androgen receptor) is introduced by transfection (a procedure to induce cells to take up foreign genes) into a background cell substantially devoid of endogenous intracellular receptors. This introduced gene directs the recipient cells to make the intracellular receptor protein. A second gene is also introduced (co-transfected) into the same cells in conjunction with the intracellular receptor gene. This second gene functions as a reporter for the transcription-modulating activity of the target intracellular receptor. Thus, the reporter acts as a surrogate for the products normally expressed by a gene under control of the target receptor and its natural hormone. A preferred reporter gene is one which expresses the firefly enzyme luciferase.
(§2) The co-transfection assay can detect small molecule agonists or antagonists of target intracellular receptors. Exposing the cells to an agonist ligand increases reporter activity in the transfected cells. This activity can be conveniently measured, e.g., by increasing luciferase production, which reflects ligand-dependent, intracellular receptor-mediated increases in reporter transcription. To detect antagonists, the co-transfection assay is carried out in the presence of a constant concentration of an agonist (e.g., for androgen receptor, dihydrotestosterone) known to induce a defined reporter signal. Increasing concentrations of a test antagonist will decrease the reporter signal (e.g., luciferase production). The co-transfection assay is therefore useful to detect both agonists and antagonists of specific intracellular receptors. It determines not only whether a compound interacts with a particular intracellular receptor, but whether this interaction mimics (agonizes) or blocks (antagonizes) the effects of the natural regulatory molecules on target gene expression, as well as the specificity and strength of this interaction.
(§3) Co-transfected cells are exposed to a medium to which is added the potential ligand (compound) that is being evaluated. If the candidate compound diffuses into the cell, binds to the receptor, and the resulting receptor complex functions as an agonist, it will subsequently bind to the co-transfected reporter gene and initiate transcription. Typically, the reporter gene is one that expresses luciferase, which is capable of catalyzing a light-emitting reaction with its substrate luciferin. Thus, after cell lysis and the introduction of luciferin, the amount of light produced relative to the concentration of candidate compound used in the assay provides a measure of the potency and efficacy of the compound tested. Antagonist activity is evaluated by adding the candidate ligand and a known agonist to the co-transfected cells.
The specific activity of Compounds A-J was compared relative to their antagonist activity on the human progesterone receptor (PR) utilizing CV-1 cells cotransfected with plasmid pRShPR-B, as altered at the Tau-1 location (e.g., PR-TI)[specifically, hPR-B was excised from the vector pGEM3Z (69 Cell 703 (1992)); the Tau-1 fragment of the gluccocorticoid receptor was inserted into hPR-B at the unique HincII site in the N-terminal region; a Bst EII to BST bI fragment spanning the Tau-1 insertion was then used to replace the corresponding region in pRShPR-B]. […] Potency or IC50 is as reported for AR-wt transfected CV-1 cells.

androgen receptor = target: T1, androgen receptor (Homo sapiens, UniProt P10275); test: Co-transfection androgen antagonist assay (CV-1 cells, pRShAR, MTV-LUC reporter; AR-wt); type: cell-based
T1 construct: expressed in transfected cells; host or cells: CV-1 (monkey kidney fibroblast) cells, plasmid pRShAR, with reporter plasmid MTV-LUC
T1 sequence (P10275 1-920): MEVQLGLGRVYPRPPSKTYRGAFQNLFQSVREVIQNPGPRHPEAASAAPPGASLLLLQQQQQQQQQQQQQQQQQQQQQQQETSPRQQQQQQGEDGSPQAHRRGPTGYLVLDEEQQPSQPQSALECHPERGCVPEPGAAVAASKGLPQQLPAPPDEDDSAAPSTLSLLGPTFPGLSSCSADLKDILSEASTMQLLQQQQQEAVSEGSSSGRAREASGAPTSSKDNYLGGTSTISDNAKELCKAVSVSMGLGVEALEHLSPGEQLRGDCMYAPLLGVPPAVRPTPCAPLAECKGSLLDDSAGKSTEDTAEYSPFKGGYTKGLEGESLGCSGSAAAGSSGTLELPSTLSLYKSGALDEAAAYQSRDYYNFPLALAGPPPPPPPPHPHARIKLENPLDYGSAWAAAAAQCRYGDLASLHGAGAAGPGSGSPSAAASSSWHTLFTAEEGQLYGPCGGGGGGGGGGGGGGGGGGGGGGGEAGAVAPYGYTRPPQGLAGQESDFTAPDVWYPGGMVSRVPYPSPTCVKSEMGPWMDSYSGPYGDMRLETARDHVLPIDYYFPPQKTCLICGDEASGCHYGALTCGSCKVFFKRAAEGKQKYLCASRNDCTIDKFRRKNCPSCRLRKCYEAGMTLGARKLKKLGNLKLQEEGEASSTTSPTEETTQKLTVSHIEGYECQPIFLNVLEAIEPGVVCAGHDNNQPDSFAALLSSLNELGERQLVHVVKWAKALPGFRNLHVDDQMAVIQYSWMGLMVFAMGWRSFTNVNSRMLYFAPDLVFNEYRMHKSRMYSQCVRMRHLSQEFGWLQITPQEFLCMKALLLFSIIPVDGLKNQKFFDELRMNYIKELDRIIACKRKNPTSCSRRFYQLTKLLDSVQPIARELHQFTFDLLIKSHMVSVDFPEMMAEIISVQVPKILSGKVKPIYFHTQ
Excerpt: The co-transfection assay provides a method for identifying functional ligands (either agonists which mimic, or antagonists which inhibit, the effect of hormones), and quantifying their activity for ligand-responsive receptor proteins. In this regard, the co-transfection assay mimics an in vivo system in the laboratory. Importantly, activity in the co-transfection assay correlates very well with known in vivo activity, such that the co-transfection assay functions as a quantitative predicator of a tested compounds in vivo pharmacology. See, e.g., T. Berger et al. 41 J. Steroid Biochem. Molec.
as §1, §2
as §3, with “cells. […]” for “cells.”

| IC50 ([2]; read-out: Potency, PR-TI (IC50)) [nM] | Emax (androgen receptor; CV-1, Table 1, androgen antagonists, relative to 2-Hydroxy-flutamide, read-out: Efficacy (% maximal response relative to 2-Hydroxy-flutamide)) [%] | IC50 (androgen receptor; Table 1, androgen antagonists, read-out: Potency (IC50, concentration required to reduce the maximal response by 50%)) [nM] | Emax (androgen receptor; Table 2, CV-1 cells AR-wt, read-out: Efficacy, AR-wt) [%] | Compound | antimutagenic activity [1] | Efficacy, PR-TI (% maximal response) ([2]; comparable to that found with RU-486) [%] |
| --- | --- | --- | --- | --- | --- | --- |
|  |  |  |  | 4-isocymobarbatol | highly active antimutagens |  |
| 850 | 85 | 300 | 85 | C=C1[C@@H](Cc2cc(OC)c(Br)cc2O)C(C)(C)CC[C@]1(C)O [J, (1S,3S)-1-Hydroxy-2-methylidene-3-(2'-hydroxy-4'-bromo-5'-methoxyphenyl)methyl-1,4,4-trimethylcyclohexane] |  | 95 |
|  |  |  |  | CC1(C)[C@@H](Br)CC[C@@]2(C)Oc3cc(Br)c(O)cc3C[C@@H]12 [cymobarbatol] | highly active antimutagens |  |
